Tested on: human degenerative disc NP cells
Assay: Caspase 9 Lumi-Glo assay, cytokine induced
Type: cell-based
Conditions: 48 hrs
Description: Apoptosis induced in NP cells (rat and human) as result of treatment with pro-inflammatory cytokines (IL-1β and TNFα) was determined using Caspase 3/7 and Caspase 9 specific Lumi-Glo assays (Promega, Madison). Briefly, NP cells were plated and treated with either IL-1β alone or in combination with TNFα only or in presence of CTGF and TGFβ1 for 48 hrs, followed by addition of specific reagents for Caspase 3/7 and Caspase 9 as per the manufacturer's instructions. Cells were incubated for another 4 hrs at 37° C., and plates were read in a multi-well luminescence plate reader.

Substance: TGFβ1: Human recombinant transforming growth factor beta 1, Peprotech cat #100-21, identified in NCCM
- IL-1β and TNFα induced caspase 9 activity: significant reduction
